In assay [1] the target is T1, heparanase (H53) (Homo sapiens, UniProt Q9Y251).
T1 construct: The 45 kDa major subunit and the 8 kDa small subunit hetero-complex to form the 53 kDa active form of heparanase
T1 sequence (Q9Y251 36-109 limits assumed): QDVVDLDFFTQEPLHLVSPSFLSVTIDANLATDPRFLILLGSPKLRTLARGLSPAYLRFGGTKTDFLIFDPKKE
T1 sequence (Q9Y251 158-543 limits assumed): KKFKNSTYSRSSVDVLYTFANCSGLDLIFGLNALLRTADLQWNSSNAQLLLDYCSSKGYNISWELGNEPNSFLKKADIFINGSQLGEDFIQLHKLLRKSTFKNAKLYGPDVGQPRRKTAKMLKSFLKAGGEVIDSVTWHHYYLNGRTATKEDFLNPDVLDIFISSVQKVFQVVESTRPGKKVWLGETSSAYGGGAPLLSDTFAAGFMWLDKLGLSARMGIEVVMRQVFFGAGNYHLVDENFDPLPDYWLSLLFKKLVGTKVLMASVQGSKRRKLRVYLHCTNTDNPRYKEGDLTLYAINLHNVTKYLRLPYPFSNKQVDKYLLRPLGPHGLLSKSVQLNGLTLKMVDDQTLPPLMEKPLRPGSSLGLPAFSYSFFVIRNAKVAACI
Kind of assay: Heparanase (H53) assay (DMB assay). Format: biochemical. As to the method: Heparanase (H53) assay: The rigidified compounds described herein were tested for inhibition of heparanase activity in the DMB assay described in U.S. Pat. No. 6,190,875. IC50 was calculated from inhibition curves of all active compounds.

Assay [2] deals with T2, vascular endothelial growth factor (VEGF) (Homo sapiens, UniProt P15692).
T2 sequence (P15692 27-191 isoform P15692-4): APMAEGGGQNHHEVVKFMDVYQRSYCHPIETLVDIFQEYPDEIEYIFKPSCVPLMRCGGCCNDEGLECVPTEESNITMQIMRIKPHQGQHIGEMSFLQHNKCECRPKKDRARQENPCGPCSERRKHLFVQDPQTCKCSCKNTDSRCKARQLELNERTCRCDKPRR
Put plainly: ELISA for determination of binding of VEGF to heparin. To be noted: inhibition of VEGF binding to heparin; NI = no inhibition. In outline: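 Binding of 10 ng/ml VEGF to plates coated with 5 μg/ml heparin-albumin (45 min, 23-25° C), detected with anti-VEGF antibody (0.26 μg/ml) plus HRP secondary and TMB, read at 450/630 nm. Percent inhibition versus a 1% DMSO pre-incubated control.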

Assay [3] deals with human prostatic cancer PC3 cells. Put plainly: In-vitro assay for inhibition of cell invasion (PC3). The class given is cell-based. To be noted: PC-3, PC3 cells (second value of cell), read-out: IC50 Invasion MB231/PC3/A375. As to the method:
(§1) In-vitro assay for inhibition of cell invasion: The ability of the rigidified compounds described herein to inhibit cell invasion was determined quantitatively using BD Biocoat FluoroBlok Invasion System (BD, cat No. FAL354165). MDA-MB231 breast cancer cells, human prostatic cancer PC3 cells and A375 melanoma cells were used for this assay. Cells (5×10^4 cells/ml) were pre-incubated with the compounds for 48 hours prior to the assay, at 37° C. and a 5% CO2 atmosphere.
(§2) Serial dilutions of each compound starting from a concentration which was previously found to be non-toxic to the cells (using Oxygen Biosensor System, BD), were prepared in DMSO and added to the cells to a final concentration of 1% DMSO. At the end of the pre-incubation, cells at each compound concentration were counted and 2×10^4 cells/well in basic medium were applied onto the top chamber of the insert of the Invasion system. 750 μl complete medium with 5% fetal calf serum was added to the bottom chambers. The tested compound was applied to the top and bottom chambers. Invasion plates were incubated for 22 hours at 37° C. and a 5% CO2 atmosphere. […]
(§3) Fluorescence of invaded cells was read in a fluorescence plate reader BMG POLARstar Galaxy, BMG at excitation/emission wavelength of 485/530 nm.

In assay [4] the test system is MDA-MB231 breast cancer cells. Kind of assay: In-vitro assay for inhibition of cell invasion (MDA-MB231). Format: cell-based. To be noted: Homo sapiens; MB231 cells (first value of cell); read-out: IC50 Invasion MB231/PC3/A375. As to the method:
as §1
Serial dilutions of each compound starting from a concentration which was previously found to be non-toxic to the cells (using Oxygen Biosensor System, BD), were prepared in DMSO and added to the cells to a final concentration of 1% DMSO. At the end of the pre-incubation, cells at each compound concentration were counted and 2×10^4 cells/well in basic medium were applied onto the top chamber of the insert of the Invasion system. 750 μl complete medium with 5% fetal calf serum was added to the bottom chambers. The tested compound was applied to the top and bottom chambers. Invasion plates were incubated for 22 hours at 37° C. and a 5% CO2 atmosphere.
At the end of the incubation, medium was aspirated from the upper chambers and the inserts were transferred to a plate containing Calcein AM (Molecular Probes), 4 μg/ml and incubated for 90 minutes at 37° C. and a 5% CO2 atmosphere.
as §3

The target in assay [5] is T3, recombinant human pro-heparanase (H60) (Homo sapiens, UniProt Q9Y251).
T3 construct: Heparanase maturation involves the removal of the signal peptide, transforming the 65 kDa pre-pro-heparanase into a 60 kDa pro-heparanase; made in house
T3 sequence (Q9Y251 36-543): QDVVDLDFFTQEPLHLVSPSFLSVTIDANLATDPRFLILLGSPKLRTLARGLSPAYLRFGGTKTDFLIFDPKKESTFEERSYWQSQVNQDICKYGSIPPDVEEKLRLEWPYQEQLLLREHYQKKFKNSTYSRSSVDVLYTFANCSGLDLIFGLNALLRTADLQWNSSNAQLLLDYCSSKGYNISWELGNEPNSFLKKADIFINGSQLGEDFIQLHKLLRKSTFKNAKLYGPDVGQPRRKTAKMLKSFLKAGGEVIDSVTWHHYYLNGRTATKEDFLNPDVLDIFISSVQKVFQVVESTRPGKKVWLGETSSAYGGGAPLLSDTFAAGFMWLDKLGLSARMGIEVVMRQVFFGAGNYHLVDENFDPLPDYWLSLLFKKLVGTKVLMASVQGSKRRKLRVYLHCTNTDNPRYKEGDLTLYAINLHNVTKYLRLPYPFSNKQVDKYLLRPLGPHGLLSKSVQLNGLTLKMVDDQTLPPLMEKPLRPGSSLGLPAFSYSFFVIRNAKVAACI
Kind of assay: Pro-heparanase (H60) activation in a cell-based assay. Conditions: inhibition of pro-heparanase activation in CHO cells; NI = no inhibition.

Assay [6] has as its system A375 melanoma cells. Kind of assay: In-vitro assay for inhibition of cell invasion (A375). The class given is cell-based. To be noted: Homo sapiens, A-375; A375 cells (third value of cell); read-out: IC50 Invasion MB231/PC3/A375. As to the method:
as §1, §2, §3

Assay [7] addresses β-FGF (Homo sapiens, UniProt P09038). Put plainly: ELISA for determination of binding of β-FGF to heparin. Conditions: inhibition of β-FGF binding to heparin; NI = no inhibition. In outline: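 Plates coated 2 h at 23-25° C with 5 μg/ml heparin-albumin, blocked with 1% BSA/PBS/0.05% Tween; 10 ng/ml β-FGF bound 45 min at 23-25° C. Bound β-FGF detected with anti-FGF mAb (2.5 ng/ml) plus HRP anti-mouse IgG and TMB; absorbance at 450 nm, 630 nm reference.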
A general note: An ELISA detects its analyte on a solid surface through an enzyme-linked reagent.

Results on 1 compound are retold here after patent publication US7795255B2, “Rigidified compounds for modulating heparanase activity” (InSight Biopharmaceuticals Ltd., priority 2005, dated 2010).

Sequence of β-FGF (P09038 143-288): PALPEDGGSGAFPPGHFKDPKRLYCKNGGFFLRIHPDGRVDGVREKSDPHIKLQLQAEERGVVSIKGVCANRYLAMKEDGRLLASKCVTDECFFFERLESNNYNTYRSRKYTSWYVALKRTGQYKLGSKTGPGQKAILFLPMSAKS

As to `CC(C)(CC(=O)N1CCC[C@H]1C(=O)O)CN1C(=O)c2cc3oc(-c4ccc(Cl)cc4)cc3n2C1=S` [Compound 22, 1-{4-[2-(4-Chloro-phenyl)-6-oxo-4-thioxo-6H-1-oxa-3b,5-diaza-cyclopenta[a]pentalen-5-yl]-3,3-dimethyl-butyryl}-pyrrolidine-2-carboxylic acid], in assay [1] (compounds with an acidic group), the “dual activity: inhibition of pro-heparanase activation (H60) and of heparanase activity (H53)” value was “dual activity”. Moreover, the IC50 in assay [1] (inhibition of heparanase activity, DMB assay, NI = no inhibition) was 34800 nM; in assay [2], 2400 nM; in assay [3], 50 nM; in assay [4], 22 nM; in assay [5] it was 230 nM; in assay [6], 2000 nM. Moreover, the IC50 in assay [7] was 2800 nM.
